Tests used:
[1] = system: scopolamine-induced amnesic mice; experiment: Modified Y-maze test; assay type: in vivo; conditions: for Unfamiliar arm exploration / cognitive deficit, modified Y-maze vs scopolamine-treated group: i.p. 1 h before, scopolamine 1 mg/kg, doses as in the sentence; for Fold lower effective dose than PNU-282987, modified Y-maze: mouse, in vivo; for Minimum effective dose, Modified Y-maze: scopolamine induced amnesia model, ICR mice, i.p.
Description: The modified Y-maze test was performed to evaluate spatial working memory. The experiment was divided into 3 sessions; (i) IND8 at 5, 10, and 50 μmol/kg or 1.5, 2.9, and 14.7 mg/kg doses, (ii) QND8 at 5, 10, and 50 μmol/kg or 1.4, 2.7, 13.5 mg/kg doses, and (iii) IND8 and QND8 at dose of 25 μmol/kg or 7.3 and 6.8 mg/kg, respectively and PNU-282987 at […] or 3, 10 mg/kg doses.
FIG. 21 illustrates the percentage of unfamiliar arm exploration in modified Y-maze of IND8 (FIG. 21A), QND8 (FIG. 21B), and IND8, QND8, PNU-282987 (FIG. 21C). IND8, QND8, PNU-282987, vehicle (15% Tween80, SH) and tacrine (TC) were injected 1 h and scopolamine (SC) 30 min before sample phase, respectively. Each mouse was placed at the end of one arm and allowed to access 2 arms of Y-maze for 5 min in sample phase. After a 30 min period, the mouse was allowed to explore 3 arms for 5 min. The number of entries for each arm was recorded and the percentage of unfamiliar arm exploration was calculated. Data represented in means±standard errors (SE).
Male ICR mice (6-weeks of age) were housed in 5 per cage with free access to food and tap water under 12 h light and dark cycle (light on 6:00 to 18:00) in a temperature and humidity controlled room. They were acclimated in a laboratory at least 7 days prior to starting experiments. The experimental protocols were approved by the Animal Care and Use Committee of KhonKaen University, Thailand.
Tacrine hydrochloride (Sigma-Aldrich, St. Louis, Mo.), PNU-282987 hydrochloride (Alamone, Jerusalem, Israel) and test compounds were prepared as suspensions by using 15% tween 80 in distilled water as a vehicle, whereas scopolamine hydrochloride (Sigma-Aldrich, St. Louis, Mo.) and methyllycaconitine citrate (MLA) (Abcam, Cambridge, England) were prepared as a solution by dissolving with 0.9% normal saline solution (NSS). All compounds were administered by intraperitoneal (i.p.) injection in the amount of 5 mL/kg. Test compounds were injected 1 h and scopolamine was administered 30 min before the experiments, whereas MLA was injected 5 min before the test compounds.
(§1) Amnesia was induced pharmacologically in mice via scopolamine injection (single dose) for 30 min prior to start the experiments. They were divided into vehicle group: receiving 15% tween 80 and 0.9% NSS, amnesia group: receiving scopolamine 1 mg/kg, standard positive control group receiving tacrine 1 mg/kg, and test group: receiving IND8, QND8 at dose 5, 10, 25, 50 μmol/kg, or PNU-282987 3, 10 mg/kg, single dose. All mice were acclimated in an experimental room at least 30 min before the experiments.
The maze in this experiment is the same apparatus using in locomotor activity test except there is the black partition to close one of three arms. The mice were randomly separated into different treatment groups. They were injected with test compounds and scopolamine at 1 h and 30 min, respectively, before the sample phase. In this phase which one arm of Y-maze was closed by the black partition, each mouse was placed at the end of one arm and allowed to move through 2 arms for 5 min to get familiar with the two opened arms. After 30 min of resting, all arms were opened and the mouse was allowed to move freely through all 3 arms. The maze area and the partition were cleaned with 70% ethanol between each experiment to remove olfactory cues. The number of entries in each arm was counted visually if mice accessed into each arm at least 10 cm. The percentage of unfamiliar arm exploration was calculated as following equation: […]

[2] = system: scopolamine-induced amnesic mice; experiment: Object recognition test (ORT); assay type: in vivo; conditions: i.p.; for Discrimination index / episodic short-term memory, ORT vs scopolamine-treated group: tacrine 1 mg/kg, IND8, QND8 10 and 50 μmol/kg; for Minimum effective dose, ORT: scopolamine induced amnesia model, ICR mice
Description: FIG. 22 illustrates exploration time to familiar (F) and novel (N) objects of IND8 (A) and QND8 (B) in test phase of ORT. Each mouse was allowed to explore an open field apparatus for 5 min in a habituation phase. After a 24 h period, IND8, QND8, PNU-282987, vehicle (15% Tween80, SH) and tacrine (TC) were injected 1 h and scopolamine (SC) 30 min before sample phase, respectively. Each mouse explored 2 identical objects in the sample phase for 5 min and then placed in its cage for 10 min before the test phase began. In the 5 min of test phase, one of the objects was changed to a new one. The exploration time of these objects was recorded.
In both data sets, a discrimination index (DI) was calculated and used to evaluate the ability of mice to discriminate between familiar and novel objects. Data are represented in FIG. 23.
as §1
The apparatus was made of black polyvinyl chloride (52×52×40 cm). The objects used in this experiment had different visual shapes and colors to be discriminated. They were placed 10 cm from the side wall in the balanced manner. The box area and objects were cleaned with 70% ethanol between each experiment to remove odor cues.
The mice were randomly divided into different treatment groups. They were allowed to freely explore the open field apparatus for 5 min for habituation in the day prior to the experiments to get familiar with the apparatus. On the experimental day, test compounds injected 1 h, whereas scopolamine administered 30 min before the sample phase (acquisition trial). The mice were placed in the apparatus to explore 2 identical objects. After 10 min of acclimation in their cages, one object was changed to a new one, and mice were allowed to explore these objects for 5 min in the test phase (retention trial). The exploration time of each object was recorded if the nose of mice approached the objects within 3 cm or touched the objects. The discrimination index (DI) was calculated by using (TN−TF)/(TN+TF); TN and TF represented exploration time of new and familiar objects, respectively.

SMILES	Unfamiliar arm exploration / cognitive deficit, modified Y-maze vs scopolamine-treated group [1]	Fold lower effective dose than PNU-282987, modified Y-maze [1]	Minimum effective dose, Modified Y-maze [1]	Discrimination index / episodic short-term memory, ORT vs scopolamine-treated group [2]	Minimum effective dose, ORT [2]
Oc1ccc(-c2cn(C3CN4CCC3CC4)nn2)cc1 (centres unmarked) [QND8, 3-(4-hydroxyphenyl-1,2,3-triazol-1-yl) quinuclidine]	improved the cognitive deficit significantly only at the 2.7 mg/kg dose	four-fold	10 µmol/kg	significantly improved episodic short-term memory	10 µmol/kg
c1cc2cc(-c3cn(C4CN5CCC4CC5)nn3)ccc2[nH]1 (centres unmarked) [IND8, 5-((Quinuclid-3-yl)-1H-1,2,3-triazol-4-yl)-1H-indole]	reversed the cognitive deficit induced by scopolamine	seven-fold	5 µmol/kg	significantly improved episodic short-term memory	10 µmol/kg
O=C(N[C@H]1CN2CCC1CC2)c1ccc(Cl)cc1 [PNU-282987, reference compound]	–	–	33 µmol/kg	–	–
